According to publication PMC5368959, “Uricosuric targets of tranilast” (Pharmacology Research & Perspectives, 2017):
“And” between values parts separate entries of the source, which are not always exact repeats. Equal values may be shown once. Read-outs that look alike come from different tables or passages of the source.

Columns and labels:
SMCT2 = target: T1, SMCT2 (Homo sapiens, UniProt Q1EHB4); test: [14C]-nicotinate uptake by SMCT2-expressing Xenopus oocytes; type: cell-based; details: for IC50: data not shown, read-out: IC50, SMCT2-mediated [14C]-nicotinate uptake
T1 sequence (Q1EHB4 1-618): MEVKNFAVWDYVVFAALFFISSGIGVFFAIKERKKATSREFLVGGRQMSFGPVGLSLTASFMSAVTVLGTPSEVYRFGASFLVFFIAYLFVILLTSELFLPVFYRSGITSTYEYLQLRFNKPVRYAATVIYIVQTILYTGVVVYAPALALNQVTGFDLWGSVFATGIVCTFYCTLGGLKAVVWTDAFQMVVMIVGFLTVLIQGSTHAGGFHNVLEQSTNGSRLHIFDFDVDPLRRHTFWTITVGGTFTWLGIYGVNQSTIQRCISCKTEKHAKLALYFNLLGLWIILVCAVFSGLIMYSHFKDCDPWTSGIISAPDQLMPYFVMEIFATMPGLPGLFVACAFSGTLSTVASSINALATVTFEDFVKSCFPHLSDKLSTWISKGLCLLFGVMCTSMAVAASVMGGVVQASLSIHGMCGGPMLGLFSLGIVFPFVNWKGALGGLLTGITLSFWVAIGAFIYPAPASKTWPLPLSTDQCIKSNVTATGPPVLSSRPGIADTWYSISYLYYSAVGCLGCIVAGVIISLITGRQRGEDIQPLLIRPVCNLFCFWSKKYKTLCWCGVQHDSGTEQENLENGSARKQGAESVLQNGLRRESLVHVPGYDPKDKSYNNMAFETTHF
Procedure: (§1) For uptake experiments, oocytes were washed four times with ND96 medium (pH 7.4) without pyruvate and gentamycin.
(§2) Chloride ion‐dependence was also assessed; in 0 Cl^− bath, NaCl was replaced by Na‐gluconate (Na‐Gluc), KCl by K‐gluconate (K‐Gluc), MgCl2 by Mg‐gluconate, and CaCl2 by Ca‐gluconate. […] Data are mean ± S.E. with n = 12–15.

OAT10 = OAT10 (Homo sapiens, UniProt Q9Y226); test: [14C]-nicotinate uptake by OAT10-expressing Xenopus oocytes; type: cell-based; details: for Inhibition of OAT10 [14C]-nicotinate uptake: drug 100 μmol/L
OAT10, sequence (Q9Y226 whole entry): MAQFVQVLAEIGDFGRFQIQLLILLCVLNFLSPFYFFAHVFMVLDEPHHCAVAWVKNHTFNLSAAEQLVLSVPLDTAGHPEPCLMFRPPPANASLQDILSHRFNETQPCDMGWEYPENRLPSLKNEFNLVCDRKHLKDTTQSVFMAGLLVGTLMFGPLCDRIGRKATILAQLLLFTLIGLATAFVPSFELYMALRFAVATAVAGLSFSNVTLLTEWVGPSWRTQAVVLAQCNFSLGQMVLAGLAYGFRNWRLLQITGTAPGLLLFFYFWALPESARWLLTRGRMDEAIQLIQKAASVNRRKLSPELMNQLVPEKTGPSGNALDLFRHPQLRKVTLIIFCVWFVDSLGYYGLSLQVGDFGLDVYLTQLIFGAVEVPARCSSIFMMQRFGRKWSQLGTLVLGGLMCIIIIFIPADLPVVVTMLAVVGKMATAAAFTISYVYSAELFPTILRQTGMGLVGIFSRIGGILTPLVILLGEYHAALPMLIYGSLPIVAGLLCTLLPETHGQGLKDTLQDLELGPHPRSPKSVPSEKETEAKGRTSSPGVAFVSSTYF
Procedure: as §1, §2

OAT1 = target: T2, OAT1 (Homo sapiens, UniProt Q4U2R8); test: [14C]-urate uptake by OAT1-expressing Xenopus oocytes; type: cell-based; details: drug 100 μmol/L
T2 sequence (Q4U2R8 1-563): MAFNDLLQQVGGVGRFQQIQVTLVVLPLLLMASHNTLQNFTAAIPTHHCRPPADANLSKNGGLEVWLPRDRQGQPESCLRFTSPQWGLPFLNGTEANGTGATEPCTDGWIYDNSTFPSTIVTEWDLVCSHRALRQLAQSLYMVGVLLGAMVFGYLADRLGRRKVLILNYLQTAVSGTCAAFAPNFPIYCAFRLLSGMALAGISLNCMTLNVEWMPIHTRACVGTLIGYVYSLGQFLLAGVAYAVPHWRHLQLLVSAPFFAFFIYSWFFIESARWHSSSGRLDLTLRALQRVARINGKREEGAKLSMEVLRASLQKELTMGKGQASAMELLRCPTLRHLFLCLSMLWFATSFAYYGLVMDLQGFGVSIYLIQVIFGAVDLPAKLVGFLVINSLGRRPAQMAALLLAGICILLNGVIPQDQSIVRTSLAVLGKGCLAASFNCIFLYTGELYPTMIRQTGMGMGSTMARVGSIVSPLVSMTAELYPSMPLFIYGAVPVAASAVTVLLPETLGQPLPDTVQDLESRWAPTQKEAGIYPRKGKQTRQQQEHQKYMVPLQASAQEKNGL
Description: as §1

URAT1 = target: T3, URAT1 (Homo sapiens, UniProt Q96S37); test: [14C]-nicotinate uptake by URAT1-expressing Xenopus oocytes; type: cell-based
T3 sequence (Q96S37 1-553): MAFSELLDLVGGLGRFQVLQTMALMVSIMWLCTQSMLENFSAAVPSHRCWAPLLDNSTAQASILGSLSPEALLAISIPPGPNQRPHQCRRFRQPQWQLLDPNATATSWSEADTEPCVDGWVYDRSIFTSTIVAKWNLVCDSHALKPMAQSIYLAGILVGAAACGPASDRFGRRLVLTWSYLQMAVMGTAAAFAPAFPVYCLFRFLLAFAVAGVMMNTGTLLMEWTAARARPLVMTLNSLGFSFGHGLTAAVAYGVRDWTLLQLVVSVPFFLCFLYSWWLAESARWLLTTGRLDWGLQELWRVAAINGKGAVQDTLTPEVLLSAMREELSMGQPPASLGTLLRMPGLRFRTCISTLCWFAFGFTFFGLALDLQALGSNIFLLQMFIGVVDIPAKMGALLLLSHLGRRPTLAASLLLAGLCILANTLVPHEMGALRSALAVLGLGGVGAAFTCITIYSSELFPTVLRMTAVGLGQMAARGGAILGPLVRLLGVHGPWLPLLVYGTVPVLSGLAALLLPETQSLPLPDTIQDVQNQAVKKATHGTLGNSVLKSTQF
Description: as §1
Data are mean ± S.E. with n = 12–15.

[1] = design: method as in Sundy and Kitt 2010; details: at least partially due to uricosuric effects; ref Sundy and Kitt 2010; cited from earlier work
[2] = tested on: inflammation induced by monosodium urate (MSU) crystals; design: method as in Serafini and Emerling 2010; details: ref Serafini and Emerling 2010; cited from earlier work
[3] = PZA-preloaded oocytes, read-out: IC50, OAT10-mediated [14C]-nicotinate/PZA exchange

SMILES	IC50 (SMCT2)	IC50 (OAT10; [3]) [µM]	Inhibition of OAT10 [14C]-nicotinate uptake (OAT10)	Inhibition of OAT1-mediated urate uptake (OAT1)	Sensitivity of URAT1-mediated [14C]-nicotinate uptake to drug (URAT1; data not shown)	Inhibition of SMCT2 nicotinate uptake (SMCT2; drug 1.0 mmol/L)	IC50 (URAT1; PZA-preloaded oocytes, 40 μmol/L nicotinate, read-out: IC50, URAT1-mediated [14C]-nicotinate uptake ([14C]-nicotinate/PZA exchange))	IC50 (OAT10; without preloading, data not shown, read-out: IC50, OAT10-mediated [14C]-nicotinate uptake) [µM]	Effect on SUA in healthy human subjects [1]	Effect on inflammation induced by MSU crystals in vivo [2]
CCc1oc2ccccc2c1C(=O)c1cc(Br)c(O)c(Br)c1 [benzbromarone]	~61.3 µM	~22.8	inhibited	effectively inhibited						
CCCN(CCC)S(=O)(=O)c1ccc(C(=O)O)cc1 [probenecid]					very sensitive	remained almost unaffected				
COc1ccc(C=CC(=O)Nc2ccccc2C(=O)O)cc1OC [tranilast, N‐(3,4‐dimethoxycinnamoyl) anthranilic acid]	~1000 µM and > 185 µM	~43.1	inhibited	effectively inhibited			~190 µM and 190 µM and > 185 µM	~42	potent reduction in SUA	suppresses inflammation
